In article PMC12030706, “Novel ^177Lu-Labeled [Thz^14]Bombesin(6–14) Derivatives with Low Pancreas Accumulation for Targeting Gastrin-Releasing Peptide Receptor-Expressing Cancer” (Pharmaceuticals, 2025):
Numbered stars: 1 amine (or outer) side, 2 acyl side, 3 side chain; on linkers, the order of the positions; unused ones are H or OH. Square brackets hold non-standard residues; d marks the D form. Peptide text beside a SMILES is read from it. * marks the point of attachment. DOTA = O=C(O)CN1CCN(CC(=O)O)CCN(CC(=O)*)CCN(CC(=O)O)CC1; NMeH = CN[C@@H](Cc1c[nH]cn1)C(=O)O; X1 = O=C(CN1CCC(N[*:1])CC1)[*:2]; Tle = CC(C)(C)[C@H](N)C(=O)O; Thz = O=C(O)[C@@H]1CSCN1

Columns and labels:
[1] = LogD7.4 measurement, shake flask method; assay type: physicochemical; conditions: n-octanol/DPBS pH 7.4, n = 3
Description: The logD7.4 values of all the ^177Lu-labeled GRPR-targeted ligands were measured using the shake flask method as previously reported. An aliquot (~2 MBq) of the radiolabeled product was added to a mixture of n-octanol (3 mL) and DPBS (3 mL, pH 7.4), followed by 1 min vortexing and 15 min centrifugation at 5000 rpm. Samples of the n-octanol (1 mL) and buffer (1 mL) layers were collected, and the activity was counted using a gamma counter. The logD7.4 values were calculated using the following equation: logD7.4=log10[countsn−octanolphase/countsbutterphase]

[2] = Ex vivo biodistribution in PC-3 tumor-bearing mice; conditions: mouse; for tissue to tissue ratio at 1 h / tissue to tissue ratio at 4 h / tissue to tissue ratio at 24 h / tissue to tissue ratio at 72 h / tissue to tissue ratio at 120 h: male, NOD.Cg-Rag1^tm1Mom Il2rg^tm1Wjl/SzJ (NRG), total radioactivity; for tissue to tissue ratio at 4 h / tissue uptake at 4 h: 4 h post-injection; for tissue to tissue ratio at 24 h / tissue uptake at 24 h: 24 h post-injection; for tissue to tissue ratio at 72 h / tissue uptake at 72 h: 72 h post-injection; for tissue to tissue ratio at 120 h / tissue uptake at 120 h: 120 h post-injection
Description: SPECT/CT imaging experiments were performed using an MILabs (Houten, The Netherlands) U-SPECT-II/CT scanner with a custom-made ultra-high-sensitivity big mouse collimator (2 mm pinhole size) following previously reported procedures. […] Male NOD.Cg-Rag1^tm1Mom Il2rg^tm1Wjl/SzJ (NRG) mice were used in these experiments because of their immunodeficient characteristics and excellent radiation tolerance. Mice were anaesthetized and subcutaneously implanted with 5 × 10^6 PC-3 prostate cancer cells (100 µL; 1:1 PBS/Matrigel) behind the left shoulder. SPECT/CT imaging and biodistribution studies were performed once the tumors reached a diameter of 5–8 mm, typically after approximately 4 weeks of growth.
For ex vivo biodistribution studies, the mice were injected with ~2–6 MBq of the radioligand. […] Blocking study was conducted at 1 h post-injection via co-injection of the radioligand with 100 μg of [D-Phe^6,Leu-NHEt^13,des-Met^14]Bombesin(6–14). Organs/tissues of interested were collected, weighed, and measured using an automatic gamma counter.

[3] = tumor/blood, Tumor/blood uptake ratio
[4] = tumor/kidney, Tumor/kidney uptake ratio
[5] = tumor/muscle, Tumor/muscle uptake ratio
[6] = tumor/pancreas, Tumor/pancreas uptake ratio
[7] = PC-3 tumor, Uptake in PC-3 tumor
[8] = adrenal glands, Uptake in adrenal glands

- logD [1]: -2.28 ± 0.14
- tissue to tissue ratio at 1 h ([2]; tumor/blood, Tumor/blood uptake ratio, 1 h blocked (co-injected with 100 µg [D-Phe6,Leu-NHEt13,des-Met14]Bombesin(6-14))): 3.91 ± 0.87
- tissue to tissue ratio at 1 h ([2]; tumor/blood, Tumor/blood uptake ratio, 1 h post-injection): 8.08 ± 0.92
- tissue to tissue ratio at 4 h [2, 3]: 162 ± 52
- tissue to tissue ratio at 24 h [2, 3]: 841 ± 162
- tissue to tissue ratio at 72 h [2, 3]: 1620 ± 500
- tissue to tissue ratio at 120 h [2, 3]: 1800 ± 724
- tissue to tissue ratio at 1 h ([2]; tumor/kidney, Tumor/kidney uptake ratio, 1 h blocked (co-injected with 100 µg [D-Phe6,Leu-NHEt13,des-Met14]Bombesin(6-14))): 0.7 ± 0.15
- tissue to tissue ratio at 1 h ([2]; tumor/kidney, Tumor/kidney uptake ratio, 1 h post-injection): 1.95 ± 0.04
- tissue to tissue ratio at 4 h [2, 4]: 2.14 ± 0.26
- tissue to tissue ratio at 24 h [2, 4]: 2.88 ± 0.84
- tissue to tissue ratio at 72 h [2, 4]: 7.34 ± 1.83
- tissue to tissue ratio at 120 h [2, 4]: 7.46 ± 1.11
- tissue to tissue ratio at 1 h ([2]; tumor/muscle, Tumor/muscle uptake ratio, 1 h blocked (co-injected with 100 µg [D-Phe6,Leu-NHEt13,des-Met14]Bombesin(6-14))): 25.2 ± 10.1
- tissue to tissue ratio at 1 h ([2]; tumor/muscle, Tumor/muscle uptake ratio, 1 h post-injection): 60.1 ± 5.97
- tissue to tissue ratio at 4 h [2, 5]: 454 ± 53.3
- tissue to tissue ratio at 24 h [2, 5]: 672 ± 161
- tissue to tissue ratio at 72 h [2, 5]: 736 ± 189
- tissue to tissue ratio at 120 h [2, 5]: 588 ± 92.8
- tissue to tissue ratio at 1 h ([2]; tumor/pancreas, Tumor/pancreas uptake ratio, 1 h blocked (co-injected with 100 µg [D-Phe6,Leu-NHEt13,des-Met14]Bombesin(6-14))): 2.79 ± 0.69
- tissue to tissue ratio at 1 h ([2]; tumor/pancreas, Tumor/pancreas uptake ratio, 1 h post-injection): 3.06 ± 0.45
- tissue to tissue ratio at 4 h [2, 6]: 7.53 ± 0.35
- tissue to tissue ratio at 24 h [2, 6]: 6.78 ± 0.88
- tissue to tissue ratio at 72 h [2, 6]: 6.18 ± 0.6
- tissue to tissue ratio at 120 h [2, 6]: 4.08 ± 1
- tissue uptake at 1 h ([2]; PC-3 tumor, 100 ug, Uptake in PC-3 tumor, 1 h blocked (co-injected with 100 µg [D-Phe6,Leu-NHEt13,des-Met14]Bombesin(6-14))): 5.03 ± 0.43 %ID/g
- tissue uptake at 1 h ([2]; PC-3 tumor, Uptake in PC-3 tumor, 1 h post-injection): 13.4 ± 1.48 %ID/g
- tissue uptake at 4 h [2, 7]: 11.8 ± 2.24 %ID/g
- tissue uptake at 24 h [2, 7]: 7.07 ± 1.23 %ID/g
- tissue uptake at 72 h [2, 7]: 4.18 ± 0.6 %ID/g
- tissue uptake at 120 h [2, 7]: 2.25 ± 0.71 %ID/g
- tissue uptake at 1 h ([2]; adrenal glands, 100 ug, Uptake in adrenal glands, 1 h blocked (co-injected with 100 µg [D-Phe6,Leu-NHEt13,des-Met14]Bombesin(6-14))): 0.75 ± 0.33 %ID/g
- tissue uptake at 1 h ([2]; adrenal glands, Uptake in adrenal glands, 1 h post-injection): 1.43 ± 0.5 %ID/g
- tissue uptake at 4 h [2, 8]: 0.59 ± 0.06 %ID/g
- tissue uptake at 24 h [2, 8]: 0.41 ± 0.08 %ID/g
- tissue uptake at 72 h [2, 8]: 0.2 ± 0.05 %ID/g
- tissue uptake at 1 h ([2]; blood, 100 ug, Uptake in blood, 1 h blocked (co-injected with 100 µg [D-Phe6,Leu-NHEt13,des-Met14]Bombesin(6-14))): 1.34 ± 0.35 %ID/g
- tissue uptake at 1 h ([2]; blood, Uptake in blood, 1 h post-injection): 1.67 ± 0.21 %ID/g
- tissue uptake at 4 h ([2]; blood, Uptake in blood): 0.08 ± 0.01 %ID/g
- tissue uptake at 24 h ([2]; blood, Uptake in blood): 0.01 %ID/g
- tissue uptake at 1 h ([2]; bone, 100 ug, Uptake in bone, 1 h blocked (co-injected with 100 µg [D-Phe6,Leu-NHEt13,des-Met14]Bombesin(6-14))): 0.13 ± 0.03 %ID/g
- tissue uptake at 4 h ([2]; bone, Uptake in bone): 0.03 ± 0.01 %ID/g
- tissue uptake at 24 h ([2]; bone, Uptake in bone): 0.03 ± 0.01 %ID/g
- tissue uptake at 72 h ([2]; bone, Uptake in bone): 0.03 ± 0.01 %ID/g
- tissue uptake at 120 h ([2]; bone, Uptake in bone): 0.02 ± 0.01 %ID/g
- tissue uptake at 1 h ([2]; brain, 100 ug, Uptake in brain, 1 h blocked (co-injected with 100 µg [D-Phe6,Leu-NHEt13,des-Met14]Bombesin(6-14))): 0.03 ± 0.01 %ID/g
- tissue uptake at 1 h ([2]; brain, Uptake in brain, 1 h post-injection): 0.03 ± 0.01 %ID/g
- tissue uptake at 4 h ([2]; brain, Uptake in brain): 0.01 %ID/g
- tissue uptake at 1 h ([2]; fat, 100 ug, Uptake in fat, 1 h blocked (co-injected with 100 µg [D-Phe6,Leu-NHEt13,des-Met14]Bombesin(6-14))): 0.14 ± 0.04 %ID/g
- tissue uptake at 1 h ([2]; fat, Uptake in fat, 1 h post-injection): 0.11 ± 0.04 %ID/g
- tissue uptake at 4 h ([2]; fat, Uptake in fat): 0.02 ± 0.01 %ID/g
- tissue uptake at 24 h ([2]; fat, Uptake in fat): 0.01 %ID/g
- tissue uptake at 72 h ([2]; fat, Uptake in fat): 0.01 %ID/g
- tissue uptake at 1 h ([2]; heart, 100 ug, Uptake in heart, 1 h blocked (co-injected with 100 µg [D-Phe6,Leu-NHEt13,des-Met14]Bombesin(6-14))): 0.43 ± 0.14 %ID/g
- tissue uptake at 1 h ([2]; heart, Uptake in heart, 1 h post-injection): 0.45 ± 0.06 %ID/g
- tissue uptake at 24 h ([2]; heart, Uptake in heart): 0.02 ± 0.01 %ID/g
- tissue uptake at 72 h ([2]; heart, Uptake in heart): 0.02 %ID/g
- tissue uptake at 120 h ([2]; heart, Uptake in heart): 0.01 %ID/g
- tissue uptake at 1 h ([2]; kidneys, 100 ug, Uptake in kidneys, 1 h blocked (co-injected with 100 µg [D-Phe6,Leu-NHEt13,des-Met14]Bombesin(6-14))): 7.44 ± 1.71 %ID/g
- tissue uptake at 24 h ([2]; kidneys, Uptake in kidneys): 2.64 ± 0.94 %ID/g
- tissue uptake at 72 h ([2]; kidneys, Uptake in kidneys): 0.6 ± 0.17 %ID/g
- tissue uptake at 120 h ([2]; kidneys, Uptake in kidneys): 0.3 ± 0.07 %ID/g
SMILES: CC(C)C[C@H](NC(=O)[C@H](Cc1cnc[nH]1)N(C)C(=O)CNC(=O)[C@@H](NC(=O)[C@H](C)NC(=O)[C@H](Cc1c[nH]c2ccccc12)NC(=O)[C@H](Cc1c[nH]cn1)NC(=O)[C@@H](Cc1ccccc1)NC(=O)CN1CCC(NC(=O)CN2CCN(CC(=O)O)CCN(CC(=O)O)CCN(CC(=O)O)CC2)CC1)C(C)(C)C)C(=O)N1CSC[C@H]1C(N)=O [[^177Lu]Lu-LW01142, metal not drawn] ({DOTA}-[X1][dF]HWA[Tle]G[NMeH]L[Thz]-NH2)
